From US9637486B2, “Btk inhibitors” (MERCK SHARP & DOHME CORP., priority 2013, dated 2017)

Molecular target: BTK enzyme (hBTK, full-length recombinant) (Homo sapiens (Human), UniProt Q06187)
Assay: Btk enzyme activity assay, LANCE TR-FRET
Format: biochemical
Conditions: 50 pM hBTK, 2 μM biotin-A5-peptide, 25 μM ATP; 60 minute compound & enzyme incubation; read-out: BTK binding IC50
Protocol: Also BTK enzymatic activity was determined with the LANCE (Lanthanide Chelate Excite) TR-FRET (Time-resolved fluorescence resonance energy transfer) assay. […] Following a 60 minute compound & enzyme incubation, each reaction was initiated by the addition of 2.5 μL 1× kinase buffer containing 8 μM biotinylated “A5” peptide (Biotin-EQEDEPEGDYFEWLE-NH2), and 100 μM ATP. The final reaction in each well of 10 μL consists of […], 2 μM biotin-A5-peptide, and 25 μM ATP. Phosphorylation reactions were allowed to proceed for 120 minutes. Reactions were immediately quenched by the addition of 20 uL of 1× quench buffer (15 mM EDTA, 25 mM Hepes 7.3, and 0.1% Triton X-100) containing detection reagents (0.626 nM of LANCE-Eu-W1024-anti-phosphoTyrosine antibody, PerkinElmer and 86.8 nM of Streptavidin-conjugated Dylight 650, Dyomics/ThermoFisher Scientific). After 60 minutes incubation with detection reagents, reaction plates were read on a PerkinElmer EnVision plate reader using standard TR-FRET protocol. Briefly, excitation of donor molecules (Eu-chelate:anti-phospho-antibody) with a laser light source at 337 nm produces energy that can be transferred to Dylight-650 acceptor molecules if this donor:acceptor pair is within close proximity. Fluorescence intensity at both 665 nm (acceptor) and 615 nm (donor) are measured and a TR-FRET ratio calculated for each well (acceptor intensity/donor intensity). […] (Log10) compound concentrations. Btk Enzyme Activity Assay Method BTK enzymatic activity was determined with the LANCE (Lanthanide Chelate Excite) TR-FRET (Time-resolved fluorescence resonance energy transfer) assay. […] Following a 60 minute compound & enzyme incubation, each reaction was initiated by the addition of 2.5 μL 1× kinase buffer containing 8 μM biotinylated “A5” peptide (Biotin-EQEDEPEGDYFEWLE-NH2), and 100 μM ATP. The final reaction in each well of 10 μL consists of 50 pM hBTK, 2 μM biotin-A5-peptide, and 25 μM ATP. Phosphorylation reactions were allowed to proceed for 120 minutes. Reactions were immediately quenched by the addition of 20 uL of 1× quench buffer (15 mM EDTA, 25 mM Hepes 7.3, and 0.1% Triton X-100) containing detection reagents (0.626 nM of LANCE-Eu-W1024-anti-phosphoTyrosine antibody, PerkinElmer and 86.8 nM of Streptavidin-conjugated Dylight 650, Dyomics/ThermoFisher Scientific). After 60 minutes incubation with detection reagents, reaction plates were read on a PerkinElmer EnVision plate reader using standard TR-FRET protocol. Briefly, excitation of donor molecules (Eu-chelate:anti-phospho-antibody) with a laser light source at 337 nm produces energy that can be transferred to Dylight-650 acceptor molecules if this donor:acceptor pair is within close proximity. Fluorescence intensity at both 665 nm (acceptor) and 615 nm (donor) are measured and a TR-FRET ratio calculated for each well (acceptor intensity/donor intensity). […] (Log10) compound concentrations.

BTK enzyme (hBTK, full-length recombinant), sequence (Q06187 whole entry): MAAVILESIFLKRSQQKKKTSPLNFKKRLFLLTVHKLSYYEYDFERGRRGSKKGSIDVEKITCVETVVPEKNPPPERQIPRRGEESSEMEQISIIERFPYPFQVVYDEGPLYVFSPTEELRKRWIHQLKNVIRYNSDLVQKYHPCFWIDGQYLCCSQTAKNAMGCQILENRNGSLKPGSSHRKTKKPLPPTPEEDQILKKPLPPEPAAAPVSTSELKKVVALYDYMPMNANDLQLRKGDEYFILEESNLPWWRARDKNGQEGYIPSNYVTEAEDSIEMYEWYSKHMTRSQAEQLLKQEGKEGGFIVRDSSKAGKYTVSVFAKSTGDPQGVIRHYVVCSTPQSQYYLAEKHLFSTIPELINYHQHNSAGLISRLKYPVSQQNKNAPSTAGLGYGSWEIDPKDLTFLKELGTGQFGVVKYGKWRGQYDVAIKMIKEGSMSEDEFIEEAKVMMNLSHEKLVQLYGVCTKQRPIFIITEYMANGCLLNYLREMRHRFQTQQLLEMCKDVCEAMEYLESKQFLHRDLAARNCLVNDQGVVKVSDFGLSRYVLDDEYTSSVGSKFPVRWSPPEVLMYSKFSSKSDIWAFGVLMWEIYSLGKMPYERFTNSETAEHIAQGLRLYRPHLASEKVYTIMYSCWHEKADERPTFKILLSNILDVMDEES

| SMILES | IC50 |
| --- | --- |
| Nc1nccc2c([C@@H]3CCCN(C(=O)C4CC4(F)F)C3)nn(-c3ccc(Oc4ccccc4)cc3)c12 (stereo partly drawn) [Example 4, 3-{(3R)-1-[(2,2-difluorocyclopropyl)carbo-nyl]piperidin-3-yl}-1-(4-phenoxyphenyl)-1H-pyrazolo[3,4-c]pyridin-7-amine] | 9.3 nM |
| C[C@H]1CC[C@@H](c2nn(-c3ccc(Oc4cccc(F)c4)cc3)c3c(N)nccc23)CN1C(=O)C1(C)COC1 [Example 28, 1-[4-(3-fluorophenoxy)phenyl]-3-{(3R,6S)-6-methyl-1-[(3-methyloxetan-3-yl)carbonyl]piperidin-3-yl}-1H-pyrazolo[3,4-c]pyridin-7-amine] | 3.8 nM |
| CC1(C(=O)N2CCC[C@@H](c3nn(-c4ccc(Oc5ccc(F)cc5)cc4)c4c(N)nccc34)C2)COC1 [Example 26, (R)-(3-(7-amino-1-(4-(4-fluorophenoxy)phenyl)-1H-pyrazolo[3,4-c]pyridin-3-yl)piperidin-1-yl)(3-methyloxetan-3-yl)methanone] | 56.9 nM |
| CC1(C(=O)N2CCC[C@@H](c3nn(-c4ccc(Oc5ccccc5)cc4)c4c(N)nccc34)C2)COC1 [Example 1, (R)-(3-(7-amino-1-(4-phenoxyphenyl)-1H-pyrazolo[3,4-c]pyridin-3-yl)piperidin-1-yl)(3-methyloxetan-3-yl)methanone] | 1.7 nM |
| C[C@@H](O)C(=O)N1C[C@H](c2nn(-c3ccc(Oc4cccc(F)c4)cc3)c3c(N)nccc23)CC[C@@H]1C [Example 29, (2R)-1-[(2S,5R)-5-{7-amino-1-[4-(3-fluorophenoxy)phenyl]-1H-pyrazolo[3,4-c]pyridin-3-yl}-2-methylpiperidin-1-yl]-1-oxopropan-2-ol] | 5.8 nM |
